According to ChEMBL document CHEMBL1157539, “Thousands of chemical starting points for antimalarial lead identification” (Nature, 2010):

tested on: Plasmodium falciparum; assay: GSK_TCMDC: Inhibition of Plasmodium falciparum 3D7 in whole erythrocytes, using parasite LDH activity as an index of growth.; assay type: functional, organism-based; details: Plasmodium falciparum, 3D7

SMILES | XC50 [nM]
O=C(/C=C/c1ccc(O)cc1)NC1CCC(CN2CCC(c3c[nH]c4ccccc34)CC2)CC1 (centres undefined) | 744
COC(=O)c1ccc(C2OC3(C(=O)c4ccccc4C3=O)C(OC)=C2Cl)cc1C(C)=O (centres undefined) | 546
CC[C@H](NC(=O)c1c(N)c(-c2sccc2Cl)nc2ccccc12)c1ccccc1 | 912
N#Cc1ccc(-c2ccc(C(=O)NCC3CCN(CCN4CCC(c5ccc6c(c5OCC(N)=O)CCCC6)CC4)CC3)cc2)cc1 | 443
N=C(Cc1ccc(Cl)cc1)NCCN1CCCCCC1 | 742
COCCNc1nc(N2CCC(CNC(=O)c3ccc(-c4ccc(C(=O)N(C)C)cc4C)cc3)CC2)nc2cc(OC)c(OC)cc12 | 1020
COC(=O)c1cccc(CNCc2ccc(-c3cccc(-c4nc5cccc(C)c5[nH]4)c3)cc2)c1 | 306
O=C(Cc1cccc(Cl)c1)Nc1cccc(-c2c[nH]c3nc(Nc4cccc(OCc5ccccc5)c4)ncc23)c1 | 1040
O=C(/C=C/c1cccc(Cl)c1)NCCCCCN1CCC(c2c[nH]c3ccccc23)CC1 | 988
Cc1cc(=O)[nH]c(-n2nc(C)cc2NC(=O)CC(c2ccccc2)c2ccccc2)n1 | 1100
COc1ccc(C2CCN(CCCCNC(=O)c3ccc(NC(=O)c4ccc(Cl)cc4)cc3)CC2)c(OC)c1 | 570
CCc1ccc(CN2CCC(CNC(=O)c3cc(-c4cccc(F)c4)cs3)C2)cc1 (centres undefined) | 1360
CCC(C)c1ccc(O)c(NC(=O)c2cncc(Br)c2)c1 (centres undefined) | 804
O=C(/C=N/O)Nc1ccccc1[N+](=O)[O-] | 785
COc1ccc(-c2cnc3ccc(NC4CCC(O)CC4)nn23)cn1 (centres undefined) | 715
COc1ccc2c(c1)S(=O)(=O)N=C(N1CCCC1c1ccc(Cl)c(Cl)c1)N2C (centres undefined) | 1280
CN1CCC(C(=O)Nc2ccc(-c3ccc(-c4nc5cc(C(F)(F)F)ccc5[nH]4)s3)cc2)CC1 | 987
CN(C)CCN(C)Cc1cccc(-c2ccc3c(Nc4ccc(F)cc4Cl)ccnc3c2)c1 | 110
Clc1ccc(Nc2nc(NCc3ccccc3)nc(N/N=C/c3ccccn3)n2)cc1 | 776
COc1coc(C(=O)NC2CCN(CC3(c4ccc(Cl)cc4)CCC3)CC2)c1OC | 164
COc1ccc2[nH]ccc(=NN=Cc3ccc(Cl)cc3)c2c1 | 211
CCOc1cc(C(=O)N[C@@H](Cc2ccccc2)[C@H](O)CNC(C)(C)c2cccc(OC)c2)cc(N2CCCS2(=O)=O)c1 | 224
Cc1ccc(C(NC(=O)C2CCCCC2)c2ccc3cccnc3c2O)cc1 (centres undefined) | 953
CCOc1cccc(C(=O)Nc2cccc(CN3CCCN(Cc4ccc(O)cc4)CC3)c2)c1 | 824
C=CCOC(=O)N1CCC(CNCc2ccc(-c3cccc(-c4nc5ccccc5[nH]4)c3)cc2)C1 (centres undefined) | 255

SMILES | XC50 [nM]
CCN(CC)CCc1ccc2c(=O)cc(CCc3cccc(F)c3F)n(CC(=O)N(C)Cc3ccc(-c4ccc(C(F)(F)F)cc4)cc3)c2c1 | 862
CC1=C(C(=O)Nc2cc3cn[nH]c3cc2F)C(c2ccc(Cl)c(NS(C)(=O)=O)c2)CC(=O)N1 (centres undefined) | 482
Cc1cc(N[C@@H](Cc2ccccc2)C(=O)NCCc2ccccc2)nc(NCC2CCCCC2)n1 | 917
O=C(NCCc1ccccc1)N(Cc1ccccc1-c1cccc(CNC2CCCC2)c1)C1CCN(Cc2ccccc2)CC1 | 832
Cc1cc(N(C)C2CCN(CC3CCCCC3)C2)nc(Nc2ccc(Cl)cc2)n1 (centres undefined) | 679
CC(C)Cn1cc(C2CCN(CCN3CCC(CNC(=O)c4ccc(-c5ccc(C#N)cc5)cc4)CC3)CC2)c2ccccc21 | 786
N=C1SC(=Cc2cn[nH]c2-c2ccc(F)cc2)C(=O)N1c1nccs1 | 225
Cc1ccc(CC(C)(C)NCC(O)c2cccc(C(F)(F)F)c2)cc1 (centres undefined) | 836
Cc1cccc2nc(-c3cccc(-c4cccc(NC(=O)COc5ccccc5C(N)=O)c4)c3)[nH]c12 | 161
O=C(/C=C/c1ccc(Cl)c(Cl)c1)NCCCCCCN1CCCN(C(=O)Nc2cccc(Cl)c2)CC1 | 855
CN1CCCN(Cc2ccc(-c3cccc(NC(=O)c4cccc(Cl)c4)c3)cc2)CC1 | 837
CCc1ccc(Cc2cnc3nc(N)nc(N)c3c2C)cc1CC | 285
Oc1ccc(CCNc2nc(NCCCOc3ccccc3-c3ccncc3)nc(N3CCNCC3)n2)cc1 | 1110
O=C(NCc1ccc(Cl)c(Cl)c1)c1cccc(C2CCCN(Cc3ccc4[nH]cnc4c3)C2)c1 (centres undefined) | 932
Nc1c2c(nc3ccc(NC(=O)CCCc4ccccc4)cc13)CCCC2 | 429
Cc1cccnc1CNc1nccc2c(C)c(C)[nH]c12 | 849
O=C(Nc1ccc(N2CCN(Cc3cccc(F)c3)CC2)cc1)c1cccs1 | 682
O=C(n1c(-c2cc3ccccc3n2C(=O)C(F)(F)F)cc2ccccc21)C(F)(F)F | 878
O=C(Nc1ccc(CCNC2=NCCN2)cc1)Nc1ccc(CCNC2=NCCN2)cc1 | 789
N#Cc1ccc(-c2ccc(C(=O)NC3CCN(CCN4CCC(c5cn(CCO)c6ccccc56)CC4)CC3)cc2)cc1 | 758
CCCC(CNCc1ccc(Cl)c(C(F)(F)F)c1)CNc1nc2cnccc2[nH]1 (centres undefined) | 291
CN(C)Cc1cccc(-c2ccc3ccnc(N)c3c2)c1 | 122
O=C(Nc1cccc(-c2cccc(CN3CCCC3)c2)c1)c1cccc(Cl)c1 | 1180
COc1ccc(-n2ccnc2SCC(=O)Nc2cc(Cl)ccc2OC)c(OC)c1 | 734
CC1(C)N=C(N)N=C(N)N1c1ccccc1 | 327

SMILES | XC50 [nM]
Cc1[nH]c(C)c(-c2ccc(-c3cccc(C(F)(F)F)c3)nc2)c(=O)c1Br | 140
O=C(NC1CC1)c1ccc(N2CCCC(COc3ccc4c(c3)CCCC4)C2)nc1 (centres undefined) | 1080
Cc1nc2ccc3ccc(CNc4ccc(C(=O)CC(CCC(=O)O)C(=O)O)cc4)cc3c2c(=O)[nH]1 (centres undefined) | 35.7
CC(CN(C)C)C(=O)Nc1cccc(-c2ccc(-c3nc4cc(F)ccc4[nH]3)s2)c1 (centres undefined) | 801
O=C(Nc1ccc(Cl)c(Cl)c1)Nc1cc(C(F)(F)F)ccc1Cl | 1440
FC(F)(F)c1ccc2[nH]c(-c3ccc(-c4ccc(CNCC5CCCO5)cc4)cc3)nc2c1 (centres undefined) | 407
Nc1nc(N)c2c(ccc3c2ccn3Cc2ccc(-c3ccccc3)cc2)n1 | 48.3
CN1CCN(Cc2cccc(Nc3nccc(Nc4ccc(Oc5ccccc5)cc4)n3)c2)CC1 | 296
O=C(NCCc1cccc(Cl)c1Cl)c1ccc(N2CCN(c3ccncc3)CC2)nc1 | 1060
CC(=O)N(Cc1nc(-c2cc(Cl)c(Cl)s2)cs1)c1c(C)cccc1C | 333
CN1CC=C(c2c[nH]c3ccc(Sc4ccccc4)cc23)CC1 | 356
Cc1n[nH]c(C)c1C1CCN(CC2CCC(NC(=O)/C=C/c3ccc(Cl)c(Cl)c3)CC2)CC1 (centres undefined) | 729
NC1=NC2(CCCC2)N(c2ccc(Cl)cc2)C(N)=N1 | 414
O=C(c1ccc(-c2cnc3[nH]cc(-c4ccc(C(=O)N5CCOCC5)cc4)c3c2)cc1)N1CCOCC1 | 1000
CS(=O)(=O)c1ccc(CCNCc2ccc(-c3ccc(CNC4CCN(Cc5ccccc5)CC4)cc3)nc2)cc1 | 249
Cc1cccc2nc(-c3cccc(-c4cccc(NC(=O)Nc5ccc(Cl)c(Cl)c5)c4)c3)[nH]c12 | 375
Cc1[nH]c2ccccc2c1C(=O)C(C)Sc1nnc(-c2ccccc2Br)[nH]1 (centres undefined) | 34.8
Cc1ccc2[nH]c3ccccc3c(=O)c2c1 | 863
Cn1c(Nc2cc(C(C)(C)C)on2)nc2cc(Nc3ccnc(Nc4cccc(S(=O)(=O)N5CCOCC5)c4)n3)ccc21 | 533
O=C(c1cc2cccc([N+](=O)[O-])c2[nH]1)N1CCC(CCN2CCC(c3c[nH]c4ccccc34)CC2)CC1 | 943
Oc1ccc2ccccc2c1CNCC1CCCCC1 | 667
Clc1ccc2nccc(N3CCC(CN4CCC(c5c[nH]c6ccccc56)CC4)CC3)c2c1 | 33.9
N=C(N)NN=Cc1cc2ccccc2c2ccccc12 | 180
O=C(NC1CCN(Cc2ccccc2)CC1)c1cc(-c2ccncc2)nc2ccc(Cl)cc12 | 920
Cc1ccc(C(=O)NC2C(=O)NC2c2ccccc2)c(C)c1 (centres undefined) | 955

SMILES | XC50 [nM]
COc1ccc(C2CC(c3ccccc3O)=NN2C(=O)c2ccco2)cc1OC (centres undefined) | 947
CCN(Cc1cccc2ccccc12)c1ccc2nc(N)nc(N)c2c1 | 3.2
Cc1cc(C2CCN(CCCCNC(=O)c3ccc(NC(=O)c4ccc(Cl)cc4)cc3)CC2)c(C)cc1OCc1nccn1C | 835
CCOC(=O)c1c(NC(=O)c2ccccc2)sc2c(O)c(CN(CC)CC)ccc12 | 969
Cc1ccc(O)c(CN2CCCC(COC(c3ccc(F)cc3)c3ccc(F)cc3)C2)c1 (centres undefined) | 715
CC(C)c1cc2c(ccc3nc(N)nc(N)c32)[nH]1 | 39
Fc1ccc(Nc2ccnc3cc(-c4cccc(CNCCN5CCOCC5)c4)ccc23)c(Cl)c1 | 142
Cc1cc(NC(c2ccc(Cl)cc2)c2ccc3cccnc3c2O)no1 (centres undefined) | 1090
CC(Cc1ccc(NS(=O)(=O)c2ccc(CC(C)NCCc3cccc(Cl)c3)cc2)cc1)NCCc1cccc(Cl)c1 (centres undefined) | 775
CC1(C)N=C(N)N=C(N)C1c1ccc(Cl)c(Cl)c1 (centres undefined) | 25.9
C=C[C@H]1CN(CCCCCCC)CC[C@H]1CCN(C)c1ccnc2ccc(OC)cc12 | 446
O=C(NC1CCN(CCN2CCC(c3cn(CCO)c4ccccc34)CC2)CC1)c1ccc(-c2ccc(C(F)(F)F)cc2)cc1 | 740
CC(C)Cc1nc(N)nc(N)c1-c1ccc(Cl)cc1 | 145
CC(Cc1ccc(NC(=O)COc2ccc(CC(C)NCCc3cccc(Cl)c3)cc2)cc1)NCCc1cccc(Cl)c1 (centres undefined) | 84.3
O=C(Nc1cccc(-c2csc(-c3nc4ccccc4[nH]3)c2)c1)c1cc(=O)c2ccccc2[nH]1 | 232
CN(C)CCCOC(=O)c1cc2cc(-c3ccccc3)ccc2n1S(=O)(=O)Cc1ccccc1 | 361
O=C(/C=C/c1ccc(Cl)c(Cl)c1)NCCCCCN1CCCN(C(=O)Nc2ccc(Cl)cc2)CC1 | 735
Cc1ccc(C2(O)CC3CCC(C2)N3C)cc1 (centres undefined) | 611
CCN(CC)CCNC(=O)c1ccc(NC(=O)c2ccc(-c3cc(NC(=O)CC4CCCC4)ccc3C)cc2)cc1 | 564
CCOC(=O)NC1=NC(C)(C)N(OCCCOc2cc(Cl)c(Cl)cc2Cl)C(NC(=O)OCC)=N1 | 31.2
c1ccc(CCNCc2cccc(-c3ccc(CNc4ccc5ncccc5c4)cc3)c2)cc1 | 810
CC(=O)Oc1cc(C(=O)Nc2ccc(Cl)cc2)cc2ccccc12 | 856
CCNc1cc(C)nc(Nc2ccc(NC(=O)c3ccccc3)cc2)n1 | 1020
CCOc1ccc(C(=O)Nc2cc(Cl)ccc2O)cc1Cl | 705
